# Test results taken from patent publication US11925632B2, “Isoquinoline derivatives for use in treating GLUT1 deficiency syndrome” (GLIAPHARM SA, priority 2019, dated 2024).
# Tests used:
# [1] = tested on: astrocytes transfected with scramble siRNA; assay: Lactate secretion, scramble siRNA astrocytes; assay type: cell-based, mouse; details: vs vehicle
# Protocol: Secretion of L-lactate was measured in the extracellular medium of 96-well plated astrocytes after 90 min stimulation (at 37° C., in 5% CO2/95% air conditions) with Vehicle (DMSO), the compounds of the invention (100 nM to 100 μM) or positive control. […] Stimulation medium was composed of D5030 medium complemented with 5 mM D-glucose and 44 mM sodium bicarbonate, pH 7.2. To quantify lactate concentrations in the extracellular medium, 200 μl of a 0.2M Glycine-semicarbazide buffer (pH 10) containing 3 mM NAD and 14 U/ml LDH was added to each well of a 96-well plate containing 30 μl aliquots of extracellular medium. Samples were incubated at 37° C. for 1 h. Fluorescence intensity (340 nm excitation/450 nm emission), which represents the amount of NADH produced, was measured, and lactate concentration values were determined relative to a standard curve of L-lactate concentrations.
# Scramble and GLUT1 siRNA sequences were as following:
# Cells were grown in transfection medium for 3 days at 37° C. in a humidified atmosphere containing 5% CO2/95% air. After 3 days, transfection medium was replaced with DMEM D5030 supplemented with 44 mM NaHCO3 and 5 mM D-Glucose (1 ml per well).
# Lactate secretion after treatment with Veh or compound of the invention (1) was measured in astrocytes transfected with scramble siRNA or GLUT1 siRNA (FIG. 4B).
# C57Bl/6 wild-type mice = assay: Long-term memory test, inhibitory avoidance (IA); assay type: in vivo, mouse
# Protocol: For pharmacodynamics (FIG. 5) and cognition (FIG. 7) experiments, adult male C57Bl/6J wild-type mice weighting 18-28 g (8 weeks of age) were used (Charles River). For ALS mouse models (FIG. 6), G93A SOD1 transgenic male and female mice on B6.SJL1-Gur/J background were used (Jackson Laboratory).
# Animals were housed in groups of 3-5 in polypropylene cages (30×40×15 cm) with wire mesh top in a temperature (22±2° C.) and humidity (55±15%) controlled environment on a 12 hour light cycle (07.00-19.00 h lights on), except after surgeries when animal were housed individually. The samples (Vehicle or compounds of the invention) were administered per os (gavage) in a solution made of water supplemented with 0.4% hydroxypropyl methylcellulose (HPMC) Methocel 4KM (w/v) and 0.25% Tween-20 (v/v), as previously described (Thackaberry et al., 2010, Toxicol Sci., 117(2):485-92). Concentrations of the compounds tested ranged from 10 to 100 mg/kg.
# IA test is a well-established memory paradigm in rodents that measures contextual memory associated with a mild electrical footshock in a specific context (the dark compartment of the IA chamber). Groups of 8-week old C57Bl/6 wild-type female mice were tested. Each mouse was handled for 5 minutes per day for at least 4 consecutive days to reduce animal's stress due to experimenter's presence/manipulation during test days. Inhibitory avoidance was carried out in an IA chamber (MedAssociates) that consists in a rectangular Perspex box divided into a safe and a shock compartment separated by an automatically operated sliding door. […] Memory retention was measured at 24 h or 3 weeks after training by placing the mouse back into the lit compartment and recording its latency (in seconds) to enter the dark compartment. […]
# Memory was measured after oral administration of vehicle or compound (1) (100 mg/kg) to young adult male mice orally, and 20 min later a training for IA (FIG. 7). 24 hours and 3 weeks after training, latencies of mice to enter back into the dark compartment of the IA chamber, the place where they received the shock, were measured.
# wild-type (WT) mice = assay: Cerebral extracellular lactate and glucose biosensors, wild-type littermates; assay type: in vivo, mouse; details: medial prefrontal cortex, 10 mg/kg and/or 100 mg/kg oral, AUC ratio vs vehicle
# Source text: Transgenic mice on 129/SvJ genetic background in which GLUT1 has been knocked-down (GLUT1-DS mice) were used (Wang et al., […], Human Molecular Genetics, 15(7)). Mating colonies were composed of wild-type female mice and GLUT1-DS male mice, or GLUT1-DS female mice and wild-type male mice. F1 pups were genotyped after ear punching at weaning using PCR to determine genotype. Mice of 2 to 3 months of age were used.
# Cerebral extracellular levels of lactate and glucose were monitored in vivo in GLUT1-DS transgenic male mice and wild-type (WT) male littermates using lactate and glucose biosensors (Pinnacle Technology), according to the manufacturer's instructions. […] After surgery, mice were monitored closely and received analgesic treatment for at least 4 days. After mice had fully recovered from surgery, compounds of the invention of vehicle were administered per os as previously described and cerebral levels of extracellular lactate or glucose were dynamically recorded for 6 hours using lactate or glucose biosensors, respectively. […] Concentration of cerebral extracellular lactate or glucose was calculated from lactate or glucose probe electric signals, respectively, using post-calibration values, as described by manufacturer. […]
# [2] = single dose 100 mg/kg oral before training, vs vehicle
compound,measurement,setting,value
"COc1cc2ccnc(Nc3ccc(OC(F)(F)F)cc3)c2cc1OC [Example 1, 6,7-dimethoxy-N-(4-(trifluoromethoxy)phenyl)isoquinolin-1-amine]",Lactate secretion,[1],significantly enhances lactate secretion
same,Latency to enter the dark compartment at training,"C57Bl/6 wild-type mice; 100 mg/kg oral, 20 min before training",same latencies at training
same,"Latency to enter the dark compartment, 3 weeks after training",C57Bl/6 wild-type mice; [2],significantly higher
same,"Latency to enter the dark compartment, 24 h after training",C57Bl/6 wild-type mice; [2],significantly higher
same,Extracellular glucose levels in the brain,wild-type (WT) mice,significantly increases
same,Extracellular lactate levels in the brain,wild-type (WT) mice,significantly increases
